Reference: US20080255244A1, “CaM Kinase II Inhibitor Improves Retinoic Acid Therapy and Inhibits the Proliferation of Myeloid Leukemia Cells” (Fred Hutchinson Cancer Research Center, priority 2007, published 2008)

Tests used:
Assay type in all cases: cell-based, human
[1] = test system: activated CaMKIIγ in U937 cells; assay: Western blot of CaMKIIγ autophosphorylation in U937 cells
Procedure: FIG. 9. Terminal differentiation/apoptosis of myeloid leukemia cells is associated with decreased CaMKIIγ activation. (A) Lysates from the HL60, NB4 and U937 myeloid cell lines treated with ATRA (1 μM) for the indicated period of time were subjected to Western blots. (B) Lysates from the indicated myeloid cell lines treated for five days with the indicated concentration of ATRA were subjected to Western blots. (C) Lysates from HL60 cells treated with TPA (0.1 μM) for the indicated time were subjected to Western blots. (D) Lysates from NB4 cells treated with arsenic trioxide (1 uM) for the indicated time were subjected to Western blots.
Antibodies and Western blots. Protein extracts, immunoprecipitations and Western blots were performed as previously detailed (Si J, Collins S J. IL-3-induced enhancement of retinoic acid receptor activity is mediated through Stat5, which physically associates with retinoic acid receptors in an IL-3-dependent manner. Blood 100: 4401-9 (2002)). Antibodies against CaMKI, CaMKIIγ, CaMKIV, c-myc, Stat3, Stat5, calmodulin, as well as the phosphospecific CaMKII (T286, 287) and phosphospecific CaMKI (T177) antibodies were from Santa Cruz Biotechnology. […]

HL-60 cells = assay: Differentiation of HL-60 cells (Wright Giemsa morphology, Cd11b FACS); conditions: single agent; five days; KN62 5 μM
Procedure: FIG. 7. KN-62 regulates the differentiation of myeloid leukemia cell lines. (A) Wright Giemsa-stained HL-60 cells either (a) uninduced or treated for five days with (b) KN62 or (c) ATRA. (d) CD11b expression in HL-60 cells after five days exposure to KN62 (5 μM) or ATRA (1 μM). (B) Wright-Giemsa stained NB4 cells treated for five days with KN-62 (5 μM) and ATRA as indicated. […] (C) Cd11b expression of NB4 cells treated for five days with the indicated concentrations of RA and/or KN-62. (D) Western blots with the indicated antibodies were performed on HL60 cell lysates following incubation with KN62 for the indicated period of time. (E) Western blots of NB4 cell lysates following a five day incubation with the indicated compounds.
Antibodies and chemical reagents. Antibodies against RARα, βtubulin, CaMKIIα, CaMKIIβ, CaMKIIγ, CaMKIIδ, CaMKIα, as well as phosphospecific antibodies against CaMKII were all purchased from Santa Cruz Biotechnology. Antibodies against N-CoR and SMRT were from Upstate Biotechnology. CaMKIV antibody was from BD Biosciences. Anti-FLAG antibody was from Sigma while anti-HA antibody from Novachem. Quantitation of CD11b surface antigen expression was performed utilizing the fluorescent-activated cell sorter (FACS) with PE-conjugated anti-CD11b antibody from Becton Dickinson. KN-62, KN-93 and ionomycin were obtained from Calbiochem. […]

[2] = test system: Stat3 transcriptional activity in K562 cells; assay: Stat3 response element luciferase reporter in K562 cells; conditions: 48 hours of culture
Procedure: FIG. 13. Stat3 is directly phosphorylated and activated by CaMKIIγ at Ser727. (A, i). Cell lysates from the indicated human leukemia cell lines were subjected to Western blots utilizing the indicated Stat3 antibodies. ii). Cell lysates from the same primary AML samples depicted in FIG. 1B were subjected to Western blots utilizing the indicated Stat3 antibodies. B). The IL-3 dependent TonB210.1 cells were deprived of IL-3 for 24 hours. The cells were then treated with the indicated compounds immediately prior to the addition of doxycycline. After an additional 24 hours cell lysates were harvested and subjected to Western blots with the indicated Stat3 antibodies. C). K562 cells were electroporated with a luciferase reporter driven by a Stat3 response element. The indicated concentrations of KN93 and the Stat 3 inhibitor, cucurbitacin I, were added and relative luciferase activity determined on cell lysates following 48 hours of culture. D, i) K562 cell lysates were immunoprecipitated with control IgG or a Stat3 antibody. […]
Transient transfections and luciferase assays. […] Stat3 transcriptional activity was determined in K562 cells transfected with the pSIE-tk-LUC luciferase reporter which harbors a Stat3 binding site ([…]). […]

K562 cells = assay: K562 proliferation in liquid suspension culture (cell counts)
Procedure: (A) K562 cells were seeded in liquid suspension culture at 5×10^4 cells/ml in the presence or absence of the indicated concentration of compounds, and cell counts were obtained at the indicated time.
Cell lines. All leukemia cell lines are cultured at 37° in RPMI supplemented with 5% heat-inactivated fetal calf serum.

## CC1=C(/C=C/C(C)=C/C=C/C(C)=C/C(=O)O)C(C)(C)CCC1 [ATRA, All-trans retinoic acid]
[1]
  total CaMKIIγ level: essentially unchanged
[1]; ATRA 1 μM
  activated CaMKIIγ level: marked decrease

## CN([C@@H](Cc1ccc(OS(=O)(=O)c2cccc3cnccc23)cc1)C(=O)N1CCN(c2ccccc2)CC1)S(=O)(=O)c1cccc2cnccc12 [KN-62]
HL-60 cells
  HL-60 differentiation (morphologic differentiation and Cd11b expression): potent inducer

## COc1ccc(S(=O)(=O)N(CCO)c2ccccc2CN(C)C/C=C/c2ccc(Cl)cc2)cc1 [KN-93]
[2]
  Stat3 responsive reporter activity: inhibited
K562 cells
  K562 viability: did not affect
K562 cells; seeded at 5×10^4 cells/ml, cell counts
  K562 cell proliferation: inhibited the proliferation of K562 cells in a dose dependent manner
